Laboratory results: patent publication US20220081415A1, “Amino Acid Derivatives for the Treatment of Inflammatory Diseases” (The Roskamp Institute, priority 2019, published 2022)
Counter-ions that a name gives are not always drawn.

test system: NF-kB activation induced by TNFα; assay: TNFα Luciferase assay: inhibition of NF-kB activation induced by TNFα in HEK293/NF-kB luciferase cells; format: cell-based; conditions: Homo sapiens, 4 h, 25 ng/ml of TNF-α for four hours, quadruplicate, read-out: IC50, concentration at which NF-kB activation was reduced by 50%
Protocol: Determination of Inhibition of NF-kB Activation Induced by TNFα . . . In Vitro Assay
The ability of a compound disclosed herein to inhibit NFkB activation induced by TNFα was determined using the TNFα Luciferase assay. The HEK293/NF-kB luciferase cell line was obtained by cotransfection of pNFkB-luc vector with pHyg (Panomics, CA, USA) followed by hygromycin selection. HEK293/NFkB Luciferase cells were grown in DMEM medium supplemented with 10% fetal bovine serum, 100 U/ml of penicillin, 100 ng/ml of streptomycin/Fungizone, and 100 μg/ml of hygromycin B as the selecting agent. HEK293 NFkB Luciferase cells were grown in T75 flasks (Nunc™ Cell Culture Treated EasYFlasks™) in a cell culture incubator at 37° C. and 5% CO2.
Confluent T75 cell culture flasks (approximately 8-10 million of cells per flask) were washed with 10 ml of sterile PBS (without calcium and magnesium) under a biosafety cabinet. After aspiration of the PBS with a sterile glass pipette, the layer of cells (for each T75 flask) was covered with 1 ml of TrypLE™ Express without phenol red (Gibco) at room temperature. After one minute of incubation, HEK293 were mechanically resuspended in the TrypLE by tapping the side of the flask. The cells were then resuspended with 10 ml of pre-warmed complete culture medium and transferred to a conical tube. Cells were centrifuged for 5 minutes at 4000 rpm (1000 g) at room temperature. The cellular pellet was resuspended with 24 ml of pre-warmed cell culture media and […] of cell suspension (approximately 80,000 cells per well) was plated per well in 96-well cell culture plates (Costar #3599, Corning, N.Y., USA) using a multichannel pipette and reversed pipetting to prevent air bubble formation. After plating, the cells were maintained overnight in the cell culture incubator before being treated. For each 96 well cell culture plate, 8 wells were used as “control wells” (only culture medium added) and to 8 wells only TNFα was added. The NF-kB Luciferase reporter cell line was challenged with 25 ng/ml of TNF-α for four hours in the presence and absence (control conditions) of a dose range of the different compounds to be tested. For each compound, a dose range of concentrations was tested in quadruplicate and used to determine an IC50.
Luciferase activity was monitored using the Luc-Screen® Extended-Glow Luciferase Reporter Gene Assay System by chemoluminescence according to the instruction of the manufacturer (Invitrogen) and a BioTek Synergy HT plate reader (BioTek Instruments, VT, USA).

`CC[C@@H](C)C(=O)Nc1cccc(C(=O)N[C@@H](Cc2ccccc2)C(=O)N2CC=CCC2c2cccnc2)c1` (stereo partly drawn) [Compound 58, 3-((R)-2-methylbutanamido)-N-((2S)-1-oxo-3-phenyl-1-(6-(pyridin-3-yl)-5,6-dihydropyridin-1(2H)-yl)propan-2-yl)benzamide] and `NCC(=O)Nc1cccc(C(=O)N[C@@H](Cc2ccccc2)C(=O)N2CC=CCC2c2cccnc2)c1` (stereo partly drawn) [Compound 53, 3-(2-aminoacetamido)-N-((2S)-1-oxo-3-phenyl-1-(6-(pyridin-3-yl)-5,6-dihydropyridin-1(2H)-yl)propan-2-yl)benzamide hydrochloride] are within 1.5-fold of each other in IC50: 0.185 µM for the first, 0.212 µM for the second.

Compared with `C[C@H](NC(=O)c1ccc(Cl)cc1)C(=O)N1CC=CCC1c1cccnc1` (stereo partly drawn) [Compound 14, 4-chloro-N-((2S)-1-oxo-1-(6-(pyridin-3-yl)-5,6-dihydropyridin-1(2H)-yl)propan-2-yl)benzamide], `COc1ccc(C(=O)N[C@@H](C)C(=O)N2CC=CCC2c2cccnc2)cc1OC` (stereo partly drawn) [Compound 12, 3,4-dimethoxy-N-((2S)-1-oxo-1-(6-(pyridin-3-yl)-5,6-dihydropyridin-1(2H)-yl)propan-2-yl)benzamide] is 2.8-fold higher in IC50: 170 µM for the first, 470 µM for the second.

First: O=C(N[C@@H](Cc1ccccc1)C(=O)N1CC=CCC1c1cccnc1)c1cccc(NC(=O)C2CCC2)c1 (stereo partly drawn) [Compound 45, 3-(cyclobutanecarboxamido)-N-((2S)-1-oxo-3-phenyl-1-(6-(pyridin-3-yl)-5,6-dihydropyridin-1(2H)-yl)propan-2-yl)benzamide]
Second: O=C(N[C@@H](Cc1ccccc1)C(=O)N1CC=CCC1c1cccnc1)c1cccnc1 (stereo partly drawn) [Compound 51, N-((2S)-1-oxo-3-phenyl-1-(6-(pyridin-3-yl)-5,6-dihydropyridin-1(2H)-yl)propan-2-yl)nicotinamide]
The IC50 of the first is 1.5-fold lower: 0.0754 µM for the first, 0.114 µM for the second.

Compared with `O=C(CCCC[C@@H]1SC[C@@H]2NC(=O)N[C@@H]21)Nc1cccc(C(=O)N[C@@H](Cc2ccccc2)C(=O)N2CC=CCC2c2cccnc2)c1` (stereo partly drawn) [Compound 41, 3-{5-[(3aS,4S,6aR)-2-oxo-hexahydro-1H-thieno[3,4-d]imidazol-4-yl]pentanamido}-N-[(2S)-1-oxo-3-phenyl-1-{1,2,3,6-tetrahydro-[2,3′-bipyridin]-1-yl}propan-2-yl]benzamide], `COc1cc(C(=O)N[C@@H](Cc2ccccc2)C(=O)N2CC=CCC2c2cccnc2)ccc1F` (stereo partly drawn) [Compound 34, 4-fluoro-3-methoxy-N-((2S)-1-oxo-3-phenyl-1-(6-(pyridin-3-yl)-5,6-dihydropyridin-1(2H)-yl)propan-2-yl)benzamide] is 10-fold higher in IC50: 0.25 µM for the first, 2.5 µM for the second.

Going from `COc1cc(C(=O)N[C@H](Cc2ccccc2)C(=O)N2CC=CCC2c2cccnc2)ccc1F` (stereo partly drawn) [Compound 31, 4-fluoro-3-methoxy-N-((2R)-1-oxo-3-phenyl-1-(6-(pyridin-3-yl)-5,6-dihydropyridin-1(2H)-yl)propan-2-yl)benzamide] to `COc1ccc(C)c(C(=O)N[C@H](Cc2ccccc2)C(=O)N2CC=CCC2c2cccnc2)c1` (stereo partly drawn) [Compound 29, 5-methoxy-2-methyl-N-((2R)-1-oxo-3-phenyl-1-(6-(pyridin-3-yl)-5,6-dihydropyridin-1(2H)-yl)propan-2-yl)benzamide], the IC50 rises from 1.7 µM to 8 µM (4.7-fold).

For `COc1ccc(Cl)c(C(=O)N[C@H](Cc2ccccc2)C(=O)N2CC=CCC2c2cccnc2)c1` (stereo partly drawn) [Compound 27, 2-chloro-5-methoxy-N-((2R)-1-oxo-3-phenyl-1-(6-(pyridin-3-yl)-5,6-dihydropyridin-1(2H)-yl)propan-2-yl)benzamide], the IC50 was 4 µM.
